Experimental findings from ChEMBL document CHEMBL3045508, “Pharmacological Characteristics of Insect Nicotinic Acetyicholine Receptor with Its Ion Channel and the Comparison of the Effect of Nicotinoids and Neonicotinoids” (J Pestic Sci, 1995) are described below.

Assay [1] is described as follows: Displacement of [3H]PCP from nAChR in Apis mellifera (honeybee0 head homogenates. It counts as tissue-based.
A short description of assay [2]: Displacement of [3H]alpha-BGT from nAChR in Apis mellifera (honeybee) head homogenates. It counts as tissue-based.
Assay [3] relates to Musca domestica. Put plainly: Insecticidal activity against 3 to 5 day old female Musca domestica (house fly) assessed as compound level causing insect mortality per female applied topically on notum measured after 24 hr. Format: functional.
In assay [4] the test system is Musca domestica. Briefly: Insecticidal activity against 3 to 5 day old female Musca domestica (house fly) assessed as induction of anesthetic effect applied topically on notum measured after 24 hr. Format: functional, organism-based.
The subject of assay [5] is Musca domestica. Briefly: Insecticidal activity against 3 to 5 day old female Musca domestica (house fly) assessed as induction of leg tremors at >2 ug/female fly applied topically on notum measured after 24 hr. Format: functional, organism-based.
The test system of a further assay is Apis mellifera. Put plainly: Displacement of [3H]PCP from nAChR in Apis mellifera (honeybee) head homogenates at 1000 uM. Format: tissue-based.
Assay [6] concerns Musca domestica. Put plainly: Insecticidal activity against 3 to 5 day old female Musca domestica (house fly) assessed as compound level causing insect mortality per female applied through intrathoracic injection measured after 24 hr. Format: functional.
Assay [7] relates to Musca domestica. Put plainly: Insecticidal activity against 3 to 5 day old female Musca domestica (house fly) assessed as induction of convulsions and paralysis applied through intrathoracic injection measured after 24 hr. Format: functional, organism-based.

Calls of active or inactive are those of the source. No cut-off for these calls is given here.

On to `CSC(C)N1CCN/C1=C\[N+](=O)[O-]` (stereo unspecified), for which the IC50 was found to be 336 µM in assay [1] and 249 µM in assay [2].

Turning to `CN1CCC[C@@H]1c1cccnc1` [R-NICOTINE], the IC50 in assay [1] came to 35 µM; in assay [2], 22.1 µM.

For `O=[N+]([O-])C=C1NCCCS1`, the IC50 in assay [1] worked out at 231 µM; in assay [2], 1360 µM.

With `CN1[C@@H](CC(=O)c2ccccc2)CCC[C@H]1C[C@H](O)c1ccccc1` [LOBELINE], the IC50 in assay [1] amounted to 158 µM; in assay [2], 4.6 µM.

As for `CN(C)CCCN1c2ccccc2Sc2ccc(Cl)cc21` [CHLORPROMAZINE], the IC50 came to 5.8 µM in assay [1] and 151 µM in assay [2].

Take `CN(C)C1CSSC1` [NEREISTOXIN]: the LD50 in the assay on Musca domestica [3] came to 0.49 µg. Moreover, the IC50 in assay [1] came out at 30.7 µM; in assay [2], 228 µM. In addition, the outcome in the assay on Musca domestica [4] and with Musca domestica [5] was Active.

For the compound `c1cncc(C2CCCCN2)c1` (stereo not drawn) [DL-ANABASINE], the results for the IC50 in assay [1] and in assay [2] were 4.99 µM and 1.98 µM, respectively.

Consider `O=[N+]([O-])/C=C1\NCCN1Cc1ccc(Cl)nc1`, for which the results for the IC50 in assay [1] and in assay [2] were 953 µM and 0.026 µM, respectively.

Take `CN1CCC[C@H]1c1cccnc1` [NICOTINE]: the LD50 in the assay on Musca domestica [3] came to 14.8 µg. Further, the figures for the IC50 in assay [1] and in assay [2] were 1.14 µM and 1.55 µM, respectively.

Take `CNC1(C)C2CCC(C2)C1(C)C` (stereo unspecified) [MECAMYLAMINE]: the IC50 in assay [1] was determined as 8.98 µM; in assay [2], 346 µM.

For `C[N+](C)(C)CCOC(N)=O` [CARBACHOL], the IC50 in assay [1] was more than 1000 µM; in assay [2], 90.1 µM. For the same compound, the inhibition in the assay with Apis mellifera came to 8.1%.

As for `C[N+]1(C)CCN(c2ccccc2)CC1` [DIMETHYLPHENYLPIPERAZINIUM IODIDE], the values for the IC50 in assay [1] and in assay [2] were 385 µM and 7.35 µM, respectively.

Take `CCC[C@H]1CCCCN1` [CONIINE]: the IC50 was 5.56 µM in assay [1] and 166 µM in assay [2].

Consider `c1ccc(C2(N3CCCCC3)CCCCC2)cc1` [PHENCYCLIDINE], for which the LD50 in the assay on Musca domestica [3] stood at 18.4 µg. Further, the IC50 in assay [1] was 0.029 µM; in assay [2], 2.55 µM. In addition, the result in the assay on Musca domestica [4] was Active.

`C/C(=N\C#N)N(C)Cc1ccc(Cl)nc1` [ACETAMIPRID]: the IC50 in assay [1] was found to be 277 µM; in assay [2], 8.83 µM.

In the case of `COc1cc2c3cc1Oc1cc(ccc1O)C[C@@H]1c4c(cc(OC)c(O)c4Oc4ccc(cc4)C[C@@H]3N(C)CC2)CC[N+]1(C)C`, the IC50 in assay [1] was 0.636 µM; in assay [2], 3.35 µM.

Consider `c1csc(C2(N3CCCCC3)CCCCC2)c1` [TENOCYCLIDINE], for which the LD50 in the assay with Musca domestica [3] was 25 µg. The IC50 in assay [1] came out at 0.082 µM; in assay [2], 1.38 µM. Also, the result with Musca domestica [4] was Active.

In the case of `CNC1(c2ccccc2Cl)CCCCC1=O` (stereo unspecified) [KETAMINE], the IC50 in assay [1] was found to be 83.2 µM; in assay [2], 237 µM.

On to `O=C1N(Cc2ccccc2)C2C[S+]3CCCC3C2N1Cc1ccccc1` (stereo unspecified) [TRIMETHAPHAN CAMSYLATE], for which the IC50 is 440 µM in assay [1] and 0.798 µM in assay [2].

For `CCN(Cc1ccc(Cl)nc1)/C(=C/[N+](=O)[O-])NC` [NITENPYRAM], the IC50 in assay [1] was found to be 27.6 µM; in assay [2], 61.3 µM.

In the case of `O=[N+]([O-])/N=C1\NCCN1Cc1ccc(Cl)nc1` [IMIDACLOPRID], the LD50 in the assay with Musca domestica [6] is 0.553 µg. Also, the IC50 is 386 µM in assay [1] and 1.95 µM in assay [2]. The result with Musca domestica [7] was Active.

In the case of `O=c1cccc2n1C[C@@H]1CNC[C@H]2C1` [CYTISINICLINE], the IC50 is more than 1000 µM in assay [1] and 0.267 µM in assay [2]. The compound also displayed an inhibition in the assay with Apis mellifera of 12.6%.

What is called IC50 is the point on the concentration scale where inhibition reaches its midpoint. By inhibition is commonly meant the change of the read-out against control, counted positive when it falls. Low readings indicate little suppression, high ones strong suppression.
